Consider four compounds from ChEMBL document CHEMBL1158274, “Antibacterial neoclerodane diterpenoids from Ajuga lupulina” (1996).

Structures are written as SMILES. The source made the active and inactive calls. The rule behind the calls is not given here.

Common to all, as to assay type: functional
One assay deals with Pseudomonas aeruginosa. Kind of assay: Antibacterial activity against Pseudomonas aeruginosa NJ94 by paper disk diffusion method.
The next assay concerns Escherichia coli. The assay can be described thus: Antibacterial activity against Escherichia coli by paper disk diffusion method. On the technique in general: In agar diffusion tests the substance spreads into inoculated agar from a disc or well.
A further assay relates to Staphylococcus aureus. Kind of assay: Antibacterial activity against Staphylococcus aureus by paper disk diffusion method.

Take `CC(=O)OC[C@@]12[C@@H](OC(C)=O)C[C@@H](C)[C@](C)([C@@H]3C[C@H]4C[C@H](O)O[C@H]4O3)[C@H]1CCC[C@]21CO1`: the result in the assay on Pseudomonas aeruginosa was inactive. Also, the “inhibition zone (IZ)” value in the assay on Escherichia coli and in the assay on Staphylococcus aureus was 1.2 mm each time.
As for `CC[C@@H](C)C(=O)O[C@H]1CC[C@@H]2[C@@](C)([C@@H]3C[C@H]4C[C@H](OC)O[C@H]4O3)[C@H](C)C[C@H](OC(C)=O)[C@@]2(COC(C)=O)[C@@]12CO2` [LUPULIN B], in the assay with Pseudomonas aeruginosa, the outcome was inactive. In addition, the “inhibition zone (IZ)” value with Escherichia coli and with Staphylococcus aureus was 1.2 mm in each case.
In the case of `CC[C@@H](C)C(=O)O[C@H]1[C@H](O)C[C@@H]2[C@@](C)([C@@H]3C[C@H]4C[C@@H](OC)O[C@H]4O3)[C@H](C)C[C@H](OC(C)=O)[C@@]2(COC(C)=O)[C@@]12CO2` [LUPULIN A], the “inhibition zone (IZ)” value is 3 mm in the assay with Pseudomonas aeruginosa, 3 mm in the assay with Escherichia coli and 1.5 mm in the assay on Staphylococcus aureus.
As to `CO[C@H]1C[C@@H]2C[C@@H]([C@@]3(C)[C@H](C)C[C@H](OC(C)=O)[C@]4(COC(C)=O)[C@@H]3CCC[C@]43CO3)O[C@@H]2O1`, the result in the assay on Pseudomonas aeruginosa, with Escherichia coli and in the assay with Staphylococcus aureus was inactive.
